Assay results from PubChem BioAssay AID2060615 (Molecular Pharmacology Branch, DTP, NCI, 2025).

Tested on: 496974-208-R-J2-PDC complex spheroids, growth % test/control
Assay: Anticancer human tumor 496974-208-R-J2-PDC patient-derived pancreatic carcinoma cell line growth inhibition [CLK]
Details: for IC50: curve of first compound; for viability, T/C: stronger effect = lower value; active means viability on the fitted dose curve at most 10% of control; inactive means the rest
Excerpt: A high-throughput screen of multi-cell type tumor spheroids was designed to identify active combinations of […] and targeted small molecules. Complex spheroids include a stromal component modeled by human endothelial cells (HUVEC) and fibroblasts modeled by human mesenchymal stem cells (MSCs). The concentration ranges selected for each drug and investigational agent were based upon clinically achievable concentrations if the clinical Cmax of the agent was known.
Compounds. The drugs and investigational agents: cirtuvivint (SM08502; NSC835563), CC-671 (NSC850746), vemurafenib (NSC761431), tapotoclax (NSC804041), sotorasib (NSC818433), adagrasib (NSC831453), MRTX-1133 (NSC836407), BAY2416964 (NSC825713), copanlisib (NSC816437), inavolisib (NSC800729), abemaciclib (NSC768073), osimertinib (NSC779217), entinostat (NSC756642), eltanexor (KPT-8602, NSC794443), venetoclax (NSC766270), ceralasertib (NSC777638), bortezomib (NSC756655), olaparib (NSC753686), talazoparib (NSC767125), alisertib (NSC759677), peposertib (NSC802822), gemcitabine (NSC613327), 5-fluorouracil (NSC19893), SN-38 (NSC673596), oxaliplatin (NSC266046), paclitaxel (NSC125973), and doxorubicin (NSC123127), were obtained from the National Cancer Institute (NCI) Developmental Therapeutics Program Chemical Repository. The FDA-approved anticancer drug set is available from the Developmental Therapeutics Program at https://dtp.cancer.gov/organization/dscb/obtaining/available plates.htm. […] The stock solutions were prepared in dimethyl sulfoxide (DMSO, Sigma-Aldrich, St. Louis, MO, cat. D2650), except for the platinum complexes which were prepared in saline (Quality Biological, Gaithersburg, MD, cat. 114-055-101), at 800-fold the tested concentration and stored at -70 degrees C prior to their use. All drugs and investigational agents were tested over a range starting from a high concentration at or near the clinical Cmax and decreasing in half-log increments. If the clinical Cmax for an agent had not been determined, the highest concentration tested was 10 microM.
Cell Culture. All cells were maintained in an incubator at 37 degrees C and 5% CO2 with 95% humidity. The PDC lines were cultured according to standard operating procedures established by the NCI PDMR. Briefly, all PDCs were thawed and cultured in Matrigel-coated flasks prepared with a working solution of 1X Ham's F-12 nutrient mix, without supplementation (Invitrogen, Waltham, MA, cat. 11765054), 100 U/mL penicillin-streptomycin (Invitrogen, cat. 15140122), and 2.5% Matrigel (Corning Inc., Corning, NY, cat. 354248) for the first three passages. The 947758-054-R-J2-PDC line was cultured in 6B/Colon 1A media, which includes advanced DMEM/F-12 (Thermo Fisher Scientific, cat. 12634028), 10 mM HEPES (Thermo Fisher Scientific, cat. 15630080), 1X GlutaMAX supplement (Thermo Fisher Scientific, cat. 35050061), 0.1 mg/mL primocin (InvivoGen, cat. ant-pm-2), 10% defined fetal bovine serum, heat inactivated (HyClone Laboratories Inc., cat. SH30070.03HI), 1.25 mM N-Acetyl-L-cysteine (Sigma-Aldrich, cat. A9165), 10 mM nicotinamide (Sigma-Aldrich, cat. N0636), 1X B-27 supplement (Thermo Fisher Scientific, cat. 17504044), 1X N-2 supplement (Thermo Fisher Scientific, cat. 17502048), and 10 microM Y-27632 dihydrochloride (Tocris Bioscience, cat. 1254). The 876862-298-R-J1-PDC was cultured in 6E media, which includes all 6B/Colon 1A media components plus 50% L-WRN conditioned media (ATCC, cat. CRL-3276), 50 ng/mL recombinant human EGF recombinant protein (hEGF; Thermo Fisher Scientific, cat. PHG0311), 10 ng/mL recombinant human fibroblast growth factor 10 (hGFG-10; PeproTech, cat. 100-26), 1 ng/mL recombinant human fibroblast growth factor 2 (hFGF-2; PeproTech, cat. 100-18B), and 1 µM prostaglandin E2 (PGE2; Tocris, cat. 2296). The 227483-062-R1-J1-PDC line was cultured in Panc media, containing all 6E components except hFGF-2, with the addition of 500 nM SB-431542 (Selleckchem, cat. S1067) and 10 nM gastrin (Tocris, cat. 3006). […]

[1] = second compound 0.0316 µM, first compound 0.0316 µM
[2] = second compound 0.0316 µM, first compound 0.1 µM
[3] = second compound 0.0316 µM, first compound 0.316 µM
[4] = second compound 0.0316 µM, first compound 1 µM
[5] = second compound 0.0316 µM, first compound 3.16 µM
[6] = second compound 0.0316 µM, first compound 10 µM
[7] = second compound 0.1 µM, first compound 0.0316 µM
[8] = second compound 0.1 µM, first compound 0.1 µM
[9] = second compound 0.1 µM, first compound 0.316 µM
[10] = second compound 0.1 µM, first compound 1 µM
[11] = second compound 0.1 µM, first compound 3.16 µM
[12] = second compound 0.1 µM, first compound 10 µM
[13] = second compound 0.316 µM, first compound 0.0316 µM
[14] = second compound 0.316 µM, first compound 0.1 µM
[15] = second compound 0.316 µM, first compound 0.316 µM
[16] = second compound 0.316 µM, first compound 1 µM
[17] = second compound 0.316 µM, first compound 3.16 µM
[18] = second compound 0.316 µM, first compound 10 µM
[19] = second compound 1 µM, first compound 0.0316 µM
[20] = second compound 1 µM, first compound 0.1 µM
[21] = second compound 1 µM, first compound 0.316 µM
[22] = second compound 1 µM, first compound 1 µM
[23] = second compound 1 µM, first compound 3.16 µM
[24] = second compound 1 µM, first compound 10 µM
[25] = second compound 3.16 µM, first compound 0.0316 µM
[26] = second compound 3.16 µM, first compound 0.1 µM
[27] = second compound 3.16 µM, first compound 0.316 µM
[28] = second compound 3.16 µM, first compound 1 µM
[29] = second compound 3.16 µM, first compound 3.16 µM
[30] = second compound 3.16 µM, first compound 10 µM
[31] = second compound 10 µM, first compound 0.0316 µM
[32] = second compound 10 µM, first compound 0.1 µM
[33] = second compound 10 µM, first compound 0.316 µM
[34] = second compound 10 µM, first compound 1 µM
[35] = second compound 10 µM, first compound 3.16 µM
[36] = second compound 10 µM, first compound 10 µM
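Further: spheroids exposed to the drugs for 7 days before readout.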
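Wherever viability, T/C is given: 100% = DMSO vehicle control wells.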

C#Cc1c(F)ccc2cc(O)cc(-c3ncc4c(N5CC6CCC(C5)N6)nc(OCC56CCCN5CC(F)C6)nc4c3F)c12 (stereo unspecified) + CN1CCN(c2cc(C(=O)Nc3cc4cc(-c5cnn(C)c5)ccc4cn3)ccn2)CC1
active: viability, T/C [13] 6.34% | viability, T/C [14] 7.18% | viability, T/C [15] 5.55% | viability, T/C [16] 5.05% | viability, T/C [17] 4.85% | viability, T/C [18] 4.28% | viability, T/C [19] 0.24% | viability, T/C [20] 1.36% | viability, T/C [21] 0.31% | viability, T/C [22] 0.34% | viability, T/C [23] 0.22% | viability, T/C [24] 0.33% | viability, T/C [25] 0.26% | viability, T/C [26] 1.39% | viability, T/C [27] 0.4% | viability, T/C [28] 0.27% | viability, T/C [29] 0.23% | viability, T/C [30] 1.06% | viability, T/C [31] 0.28% | viability, T/C [32] 0.2% | viability, T/C [33] 0.22% | viability, T/C [34] 0.2% | viability, T/C [35] 0.21% | viability, T/C [36] 1.87%
inactive: viability, T/C [1] 54.9% | viability, T/C [2] 41.2% | viability, T/C [3] 39.9% | viability, T/C [4] 37.2% | viability, T/C [5] 33.5% | viability, T/C [6] 35.1% | viability, T/C [7] 37.7% | viability, T/C [8] 34.7% | viability, T/C [9] 30.2% | viability, T/C [10] 25.8% | viability, T/C [11] 25.2% | viability, T/C [12] 22.8%
< 31.6 nM: IC50 (second compound 0.1 µM) | IC50 (second compound 0.316 µM) | IC50 (second compound 1 µM) | IC50 (second compound 3.16 µM) | IC50 (second compound 10 µM)
49.4 nM: IC50 (second compound 0.0316 µM)

C=C(F)C(=O)N1CCN(c2nc(OCC3CCCN3C)nc3c2CCN(c2cccc4cccc(Cl)c24)C3)CC1CC#N (stereo unspecified) + CN1CCN(c2cc(C(=O)Nc3cc4cc(-c5cnn(C)c5)ccc4cn3)ccn2)CC1
inactive: viability, T/C [1] 107% | viability, T/C [2] 106% | viability, T/C [3] 89.9% | viability, T/C [4] 117% | viability, T/C [5] 88.8% | viability, T/C [7] 86.1% | viability, T/C [8] 88.8% | viability, T/C [9] 75.8% | viability, T/C [10] 86.6% | viability, T/C [11] 70.8%
< 31.6 nM: IC50 (second compound 0.316 µM) | IC50 (second compound 1 µM) | IC50 (second compound 3.16 µM) | IC50 (second compound 10 µM)
active: viability, T/C [6] 3.02% | viability, T/C [12] 0.72% | viability, T/C [13] 7.07% | viability, T/C [14] 8.92% | viability, T/C [15] 8.59% | viability, T/C [16] 7.85% | viability, T/C [17] 6.67% | viability, T/C [18] 1.1% | viability, T/C [19] 0.58% | viability, T/C [20] 0.48% | viability, T/C [21] 1.51% | viability, T/C [22] 0.33% | viability, T/C [23] 1.52% | viability, T/C [24] 2.06% | viability, T/C [25] 0.33% | viability, T/C [26] 0.52% | viability, T/C [27] 1.57% | viability, T/C [28] 0.45% | viability, T/C [29] 0.2% | viability, T/C [30] 1.09% | viability, T/C [31] 0.35% | viability, T/C [32] 0.35% | viability, T/C [33] 0.31% | viability, T/C [34] 0.32% | viability, T/C [35] 0.74% | viability, T/C [36] 0.22%
5320 nM: IC50 (second compound 0.0316 µM)
4440 nM: IC50 (second compound 0.1 µM)

CC(CO)NC(=O)c1cc(-c2ccc(Cl)cc2)nn(-c2cnn(C)c2)c1=O (stereo unspecified) + CN1CCN(c2cc(C(=O)Nc3cc4cc(-c5cnn(C)c5)ccc4cn3)ccn2)CC1
> 10000 nM: IC50 (second compound 0.0316 µM) | IC50 (second compound 0.1 µM)
inactive: viability, T/C [1] 100% | viability, T/C [2] 103% | viability, T/C [3] 104% | viability, T/C [4] 97.6% | viability, T/C [5] 79.8% | viability, T/C [6] 53.3% | viability, T/C [7] 80.9% | viability, T/C [8] 90.1% | viability, T/C [9] 73.7% | viability, T/C [10] 80% | viability, T/C [11] 71.3% | viability, T/C [12] 55%
< 31.6 nM: IC50 (second compound 0.316 µM) | IC50 (second compound 1 µM) | IC50 (second compound 3.16 µM) | IC50 (second compound 10 µM)
active: viability, T/C [13] 6.47% | viability, T/C [14] 7.73% | viability, T/C [15] 7.09% | viability, T/C [16] 6.92% | viability, T/C [17] 7.31% | viability, T/C [18] 10.6% | viability, T/C [19] 0.48% | viability, T/C [20] 0.63% | viability, T/C [21] 0.82% | viability, T/C [22] 0.41% | viability, T/C [23] 0.57% | viability, T/C [24] 3.08% | viability, T/C [25] 0.49% | viability, T/C [26] 0.49% | viability, T/C [27] 0.55% | viability, T/C [28] 0.4% | viability, T/C [29] 1% | viability, T/C [30] 0.92% | viability, T/C [31] 0.3% | viability, T/C [32] 0.27% | viability, T/C [33] 1.54% | viability, T/C [34] 0.29% | viability, T/C [35] 0.35% | viability, T/C [36] 1.18%
